Test results from paper PMC2909451 (European journal of pharmaceutical sciences : official …, 2010).
Where a name gives a salt, the structure may show the parent alone.

Legend:
[1] = target: T1, excitatory amino acid transporters (SLC1A6, EAAT4) (Rattus norvegicus, UniProt O35921); assay: EAAT4 cis-inhibition of glutamate uptake in stably transfected HEK 293 cells; format: cell-based; settings: for potency estimated from few doses: HEK293, read-out: Ki estimated from one concentration
T1 sequence (O35921 1-561): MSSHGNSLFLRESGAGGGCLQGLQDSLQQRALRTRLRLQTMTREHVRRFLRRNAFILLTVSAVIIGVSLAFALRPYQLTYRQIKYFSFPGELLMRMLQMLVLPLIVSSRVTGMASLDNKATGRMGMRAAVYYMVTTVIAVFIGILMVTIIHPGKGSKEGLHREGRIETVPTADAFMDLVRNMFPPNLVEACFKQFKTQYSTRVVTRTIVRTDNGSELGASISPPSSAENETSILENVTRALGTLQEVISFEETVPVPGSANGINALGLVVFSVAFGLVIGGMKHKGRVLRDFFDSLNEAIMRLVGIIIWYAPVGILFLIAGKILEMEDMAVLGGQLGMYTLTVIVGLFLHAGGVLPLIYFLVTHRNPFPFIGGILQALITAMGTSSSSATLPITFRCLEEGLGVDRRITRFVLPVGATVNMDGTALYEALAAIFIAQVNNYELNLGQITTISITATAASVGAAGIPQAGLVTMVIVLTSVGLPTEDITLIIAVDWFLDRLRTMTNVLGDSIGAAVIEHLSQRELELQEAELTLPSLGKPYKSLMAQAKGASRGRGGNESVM

[2] = target: T2, human organic cation/carnitine transporter (SLC22A5, OCTN2) (Homo sapiens, UniProt O76082); assay: OCTN2 cis-inhibition of L-carnitine uptake in OCTN2-MDCK cells; format: cell-based; settings: for potency estimated from few doses: read-out: Ki estimated from one concentration
T2 sequence (O76082 1-557): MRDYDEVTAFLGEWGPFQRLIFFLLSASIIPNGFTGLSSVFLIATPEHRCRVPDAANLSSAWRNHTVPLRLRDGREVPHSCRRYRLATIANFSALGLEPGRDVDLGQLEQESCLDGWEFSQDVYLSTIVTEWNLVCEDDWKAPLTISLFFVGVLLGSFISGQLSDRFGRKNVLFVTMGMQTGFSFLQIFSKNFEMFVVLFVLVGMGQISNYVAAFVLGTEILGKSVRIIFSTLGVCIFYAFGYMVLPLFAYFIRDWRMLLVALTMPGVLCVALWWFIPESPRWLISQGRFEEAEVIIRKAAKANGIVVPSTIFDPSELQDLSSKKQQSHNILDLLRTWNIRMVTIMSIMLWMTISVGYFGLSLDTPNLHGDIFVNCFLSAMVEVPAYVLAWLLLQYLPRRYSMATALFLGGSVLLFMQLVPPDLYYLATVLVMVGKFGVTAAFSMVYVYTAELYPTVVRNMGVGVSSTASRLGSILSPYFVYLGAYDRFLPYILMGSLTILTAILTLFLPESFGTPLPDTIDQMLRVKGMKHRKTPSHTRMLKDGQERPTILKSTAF

OCTN2 = target: T3, OCTN2 (Homo sapiens, UniProt O76082); assay: L-carnitine uptake study; format: cell-based; settings: substrate uptake studies
T3 sequence (O76082 1-557): T2 sequence (O76082 1-557)

EAAT4 = EAAT4 (Rattus norvegicus, UniProt O35921); settings: substrate uptake studies
[3] = Precipitation / solubility of inhibitor in transport buffer; format: physicochemical; settings: for precipitation / solubility in donor solution: ASBT inhibition study, 1-[…] DMSO for low water soluble compounds; for highest concentration at which no precipitation was observed: transport buffer of the ASBT inhibition study, precipitation observed above it
[4] = target: T4, human apical sodium-dependent transporter (SLC10A2, ASBT) (Homo sapiens, UniProt Q12908); settings: 50 µM
T4 sequence (Q12908 1-348): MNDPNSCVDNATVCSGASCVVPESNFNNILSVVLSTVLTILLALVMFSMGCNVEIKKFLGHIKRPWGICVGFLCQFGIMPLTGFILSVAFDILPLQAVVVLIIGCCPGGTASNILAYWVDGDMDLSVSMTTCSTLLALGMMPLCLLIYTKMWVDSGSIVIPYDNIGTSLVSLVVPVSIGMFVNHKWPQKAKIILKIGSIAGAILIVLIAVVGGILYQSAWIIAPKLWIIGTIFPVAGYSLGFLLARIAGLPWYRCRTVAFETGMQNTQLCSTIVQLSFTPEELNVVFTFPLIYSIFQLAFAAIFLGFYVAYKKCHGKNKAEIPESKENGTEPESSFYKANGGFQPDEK

[5] = target: T4, human apical sodium-dependent transporter (SLC10A2, ASBT); assay: ASBT cis-inhibition of taurocholate uptake in ASBT-MDCK cells; settings: for Ki: mean±S.E.
ASBT = ASBT (Homo sapiens, UniProt Q12908); settings: substrate uptake studies
[6] = Ki, inhibitor concentration range 0-5 μM
[7] = Ki, inhibitor concentration range 0-10 μM
[8] = Ki, inhibitor concentration range 0-20 μM
[9] = Ki, inhibitor concentration range 0-50 μM
[10] = Ki, inhibitor concentration range 0-100 μM
[11] = Ki, inhibitor concentration range 0-200 μM
[12] = Reference Ki, from the comprehensive inhibition profile
[13] = Ki, inhibitor concentration range 0-[…]
[14] = Ki, inhibitor concentration range 0-500 μM

N[C@H](CC(=O)O)C(=O)O [D-Aspartic acid]
potency estimated from few doses [1]: 8.4 ± 0.81 µM | Ki [1, 6]: 9.06 ± 1.51 µM | Ki [1, 7]: 8.72 ± 0.76 µM | Ki [1, 8]: 8.58 ± 0.59 µM | Ki [1, 9]: 8.95 ± 0.57 µM | Ki [1, 10]: 9.21 ± 0.57 µM | Ki [1, 11]: 9.54 ± 0.75 µM | Ki [1, 12]: 9.54 µM

C[N+](C)(C)C[C@@H](O)CC(=O)[O-] [D-carnitine]
Ki ([2]; Ki, inhibitor concentration range 0-1 μM): 8.9 ± 4 µM | Ki [2, 6]: 10.2 ± 1.1 µM | Ki [2, 7]: 11.5 ± 0.9 µM | Ki [2, 8]: 11.8 ± 0.7 µM | Ki [2, 9]: 12 ± 0.6 µM | Ki [2, 10]: 12.1 ± 0.5 µM | Ki [2, 11]: 12.2 ± 0.5 µM | Ki [2, 13]: 9 ± 1.5 µM | Ki [2, 12]: 12.2 µM | potency estimated from few doses [2]: 12.2 ± 0.5 µM

COc1cccc2c1C(=O)c1c(O)c3c(c(O)c1C2=O)C[C@@](O)(C(C)=O)C[C@@H]3O[C@H]1C[C@H](N)[C@H](O)[C@H](C)O1 [Daunorubicin hydrochloride, daunorubicin hydrochloride]
Ki [2, 10]: 424 ± 122 µM | Ki [2, 11]: 375 ± 63 µM | Ki [2, 14]: 443 ± 56 µM | Ki ([2]; Ki, inhibitor concentration range 0-1000 μM): 484 ± 48 µM | Ki ([2]; Ki, inhibitor concentration range 0-1500 μM): 496 ± 41 µM | Ki [2, 12]: 496 µM | potency estimated from few doses [2]: 488 ± 47 µM

N[C@@H](CC(=O)O)C(=O)O [L-Aspartic acid]
potency estimated from few doses [1]: 3.03 ± 0.3 µM | Ki [1, 6]: 1.72 ± 0.14 µM | Ki [1, 7]: 1.77 ± 0.12 µM | Ki [1, 8]: 1.83 ± 0.14 µM | Ki [1, 9]: 1.88 ± 0.18 µM | Ki [1, 10]: 1.92 ± 0.23 µM | Ki [1, 13]: 2.01 ± 0.13 µM | Ki [1, 12]: 1.92 µM

C[N+](C)(C)C[C@H](O)CC(=O)[O-] [L-carnitine]
Kt (Michaelis-Menten constant for transporter mediated transport) (OCTN2): 5.33 µM

CC[C@]1(O)C[C@H]2CN(CCc3c([nH]c4ccccc34)[C@@](C(=O)OC)(c3cc4c(cc3OC)N(C=O)[C@H]3[C@@](O)(C(=O)OC)[C@H](OC(C)=O)[C@]5(CC)C=CCN6CC[C@]43[C@@H]65)C2)C1 [Vincristine sulfate]
Ki [2, 7]: 14.9 ± 2 µM | Ki [2, 8]: 14.5 ± 1.2 µM | Ki [2, 9]: 14.6 ± 1.5 µM | Ki [2, 10]: 15.7 ± 1.6 µM | Ki [2, 11]: 15.9 ± 1.5 µM | Ki [2, 14]: 15.9 ± 1.4 µM | Ki [2, 12]: 15.9 µM | potency estimated from few doses [2]: 14.7 ± 3.1 µM

N[C@@H](CCC(=O)O)C(=O)O [glumatate, glutamate]
Kt (Michaelis-Menten constant for transporter mediated transport) (EAAT4): 2.02 µM

CCOC(=O)C1=C(C)NC(C)=C(C(=O)OC)C1c1cccc([N+](=O)[O-])c1 (stereo not shown) [nitrendipine]
precipitation / solubility in donor solution [3]: incomplete solubility at higher drug concentrations | highest concentration at which no precipitation was observed [3]: 50 µM | inhibition [4]: 39.7% | Ki ([5]; inhibitor concentration range 0-50 μM): 43.9 µM

C[C@H](CCC(=O)NCCS(=O)(=O)O)[C@H]1CC[C@H]2[C@@H]3[C@H](O)C[C@@H]4C[C@H](O)CC[C@]4(C)[C@H]3C[C@H](O)[C@]12C [taurocholate]
Kt (Michaelis-Menten constant for transporter mediated transport) (ASBT): 5.03 µM

Cc1cccc(Nc2ccncc2S(=O)(=O)NC(=O)NC(C)C)c1 [torsemide]
precipitation / solubility in donor solution [3]: incomplete solubility at higher drug concentrations | highest concentration at which no precipitation was observed [3]: 1000 µM | Ki ([5]; inhibitor concentration range 0-1000 μM): 460 µM | inhibition at 1000 µM ([5]; read-out: percent taurocholate inhibited at the highest inhibitor concentration): 58.4%
